Test results from patent US20140335115A1 (priority 2013, published 2014).

Tests used:
Assay type in all cases: cell-based
monkeypoxvirus = test system: monkeypoxvirus
cowpoxvirus = test system: cowpoxvirus
vaccinia virus = test system: vaccinia virus

Measured: prevention of spread of virus to Jurkat T cells

O=C(NN1C(=O)[C@@H]2[C@@H]3C=C[C@@H]([C@H]4C[C@@H]34)[C@@H]2C1=O)c1ccc(C(F)(F)F)cc1 [ST246]
~90%: all assays above
